Reference: ChEMBL document CHEMBL1201862, “PubChem BioAssay data set” (2004)
pIC50: −log10 of the molar value. Calls of active or inactive are those of the source.

Key:
[1] = Luminescence Cell-Based Dose Confirmation HTS to Identify Activators of 5'UTR Stem-Loop Driven Alpha-Synuclein mRNA Translation in H4 Neuroglioblastoma Cells. [Related pubchem assays: 1829 (Project Summary), 1814 (Primary HTS)]; format: functional
[2] = Luminescence Cell-Based Dose Response HTS to Identify Activators of Luciferase Translation or Activity in H4 […] Cells. [Related pubchem assays: 1829 (Project Summary), 1814 (Primary HTS)]; format: functional
BJ [3] = test: BJ-TERT fibroblast viability loss – cell-based, RAS-independent, luminescence, dose response (AID 1933); format: functional; details: Homo sapiens
H4 = test: Luminescence Cell-Based Dose Response HTS to Identify Activators of 5'UTR Stem-Loop Driven Prion Protein mRNA Translation in H4 Neuroglioblastoma Cells. [Related pubchem assays: 1829 (Project Summary), 1814 (Primary HTS)]; format: functional; details: Homo sapiens
[4] = biological target: T1, Voltage-gated N-type calcium channel alpha-1B subunit/Amyloid beta A4 precursor protein-binding family A member 1 (Homo sapiens, UniProt Q00975+Q02410); format: protein assay
T1 sequence (Q00975 whole entry): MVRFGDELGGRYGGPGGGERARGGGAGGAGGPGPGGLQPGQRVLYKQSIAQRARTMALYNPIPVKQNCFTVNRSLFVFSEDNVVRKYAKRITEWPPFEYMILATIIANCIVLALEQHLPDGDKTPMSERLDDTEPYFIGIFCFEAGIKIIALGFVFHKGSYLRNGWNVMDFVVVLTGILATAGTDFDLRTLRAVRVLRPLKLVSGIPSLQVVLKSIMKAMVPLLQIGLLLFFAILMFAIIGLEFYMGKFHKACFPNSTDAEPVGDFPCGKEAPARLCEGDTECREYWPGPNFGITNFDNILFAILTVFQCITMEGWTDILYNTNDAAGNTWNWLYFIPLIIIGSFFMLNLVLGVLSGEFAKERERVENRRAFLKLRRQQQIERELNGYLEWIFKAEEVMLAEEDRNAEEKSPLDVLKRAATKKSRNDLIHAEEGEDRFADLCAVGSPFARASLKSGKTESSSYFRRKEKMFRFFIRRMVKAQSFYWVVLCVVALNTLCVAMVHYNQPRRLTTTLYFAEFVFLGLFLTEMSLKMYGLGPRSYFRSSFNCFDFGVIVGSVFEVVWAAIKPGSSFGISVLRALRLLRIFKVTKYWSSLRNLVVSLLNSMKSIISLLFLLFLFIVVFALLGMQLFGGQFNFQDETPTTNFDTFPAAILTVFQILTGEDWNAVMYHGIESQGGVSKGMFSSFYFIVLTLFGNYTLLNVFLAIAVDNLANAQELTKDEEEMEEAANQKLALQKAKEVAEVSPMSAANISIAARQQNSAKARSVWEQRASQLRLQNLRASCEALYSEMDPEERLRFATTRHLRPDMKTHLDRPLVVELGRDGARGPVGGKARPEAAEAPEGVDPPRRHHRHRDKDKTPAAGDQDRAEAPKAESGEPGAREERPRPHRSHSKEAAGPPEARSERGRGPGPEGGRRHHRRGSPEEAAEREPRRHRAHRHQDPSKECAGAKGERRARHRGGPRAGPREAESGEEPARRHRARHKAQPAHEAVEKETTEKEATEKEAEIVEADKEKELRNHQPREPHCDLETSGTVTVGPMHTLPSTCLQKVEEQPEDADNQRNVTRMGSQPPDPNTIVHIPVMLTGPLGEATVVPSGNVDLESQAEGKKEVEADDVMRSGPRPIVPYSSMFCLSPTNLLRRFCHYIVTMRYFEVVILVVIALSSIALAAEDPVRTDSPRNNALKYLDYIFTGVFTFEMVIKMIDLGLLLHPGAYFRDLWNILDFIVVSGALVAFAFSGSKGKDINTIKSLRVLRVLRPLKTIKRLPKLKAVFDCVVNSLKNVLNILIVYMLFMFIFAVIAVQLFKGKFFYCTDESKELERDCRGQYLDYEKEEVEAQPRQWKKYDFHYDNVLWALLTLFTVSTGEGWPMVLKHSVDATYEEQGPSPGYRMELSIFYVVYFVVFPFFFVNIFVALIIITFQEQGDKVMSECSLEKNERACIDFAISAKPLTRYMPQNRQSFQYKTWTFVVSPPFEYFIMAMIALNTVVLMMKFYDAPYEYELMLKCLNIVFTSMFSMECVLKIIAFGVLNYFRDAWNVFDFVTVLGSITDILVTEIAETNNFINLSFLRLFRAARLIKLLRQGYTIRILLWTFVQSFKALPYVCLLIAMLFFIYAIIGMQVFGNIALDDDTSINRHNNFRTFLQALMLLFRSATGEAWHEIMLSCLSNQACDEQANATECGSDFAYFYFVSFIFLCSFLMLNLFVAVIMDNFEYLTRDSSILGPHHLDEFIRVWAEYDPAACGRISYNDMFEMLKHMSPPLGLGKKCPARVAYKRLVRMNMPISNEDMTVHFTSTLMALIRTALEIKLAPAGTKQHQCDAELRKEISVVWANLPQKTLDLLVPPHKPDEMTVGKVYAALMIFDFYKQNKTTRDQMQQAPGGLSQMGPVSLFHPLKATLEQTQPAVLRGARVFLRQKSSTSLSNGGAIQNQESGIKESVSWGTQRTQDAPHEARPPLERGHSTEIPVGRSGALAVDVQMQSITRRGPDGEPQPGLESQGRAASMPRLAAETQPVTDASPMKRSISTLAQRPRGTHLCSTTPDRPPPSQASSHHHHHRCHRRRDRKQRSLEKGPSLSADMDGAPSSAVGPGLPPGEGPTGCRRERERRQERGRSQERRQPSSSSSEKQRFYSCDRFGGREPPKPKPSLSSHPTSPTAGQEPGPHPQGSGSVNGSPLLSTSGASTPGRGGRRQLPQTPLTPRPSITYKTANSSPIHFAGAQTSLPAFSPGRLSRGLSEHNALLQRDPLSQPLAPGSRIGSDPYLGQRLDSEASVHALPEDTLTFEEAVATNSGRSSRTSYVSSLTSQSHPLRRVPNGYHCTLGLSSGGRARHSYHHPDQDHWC
T1 sequence (Q02410 whole entry): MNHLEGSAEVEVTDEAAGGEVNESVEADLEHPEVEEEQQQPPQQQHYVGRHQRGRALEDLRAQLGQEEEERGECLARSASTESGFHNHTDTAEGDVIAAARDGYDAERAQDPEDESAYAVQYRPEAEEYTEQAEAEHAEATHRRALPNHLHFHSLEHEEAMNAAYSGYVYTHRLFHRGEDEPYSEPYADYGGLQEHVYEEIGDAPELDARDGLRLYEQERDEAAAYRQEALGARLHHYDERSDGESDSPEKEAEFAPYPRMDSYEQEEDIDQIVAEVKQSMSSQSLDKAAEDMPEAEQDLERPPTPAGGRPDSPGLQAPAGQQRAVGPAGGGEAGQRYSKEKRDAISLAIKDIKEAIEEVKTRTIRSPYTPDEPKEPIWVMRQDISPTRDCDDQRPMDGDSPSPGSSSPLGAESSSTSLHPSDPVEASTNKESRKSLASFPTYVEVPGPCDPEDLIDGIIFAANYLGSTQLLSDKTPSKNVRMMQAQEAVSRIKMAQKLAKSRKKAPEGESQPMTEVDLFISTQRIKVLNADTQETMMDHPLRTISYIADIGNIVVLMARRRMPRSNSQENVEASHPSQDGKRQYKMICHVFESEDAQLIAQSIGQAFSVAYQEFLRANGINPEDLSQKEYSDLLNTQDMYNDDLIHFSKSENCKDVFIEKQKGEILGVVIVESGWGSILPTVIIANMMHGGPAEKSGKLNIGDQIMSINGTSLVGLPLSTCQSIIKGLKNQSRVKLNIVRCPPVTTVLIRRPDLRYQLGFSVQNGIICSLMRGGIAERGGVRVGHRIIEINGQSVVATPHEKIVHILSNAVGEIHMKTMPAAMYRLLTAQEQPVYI

[5] = biological target: T2, Heat shock factor protein 1 (Mus musculus, UniProt P38532); test: decrease of HSF1-responsive luciferase luminescence – cell-based, NIH3T3, dose retest, confirmation (AID 2382); format: functional;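 note: NIH3T3 fibroblasts with HSF1-driven luciferase reporter stressed by proteasome inhibitor MG132; luminescence from HSF1-driven luciferase expression after 8 hours of MG132 stress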
T2 sequence (P38532 whole entry): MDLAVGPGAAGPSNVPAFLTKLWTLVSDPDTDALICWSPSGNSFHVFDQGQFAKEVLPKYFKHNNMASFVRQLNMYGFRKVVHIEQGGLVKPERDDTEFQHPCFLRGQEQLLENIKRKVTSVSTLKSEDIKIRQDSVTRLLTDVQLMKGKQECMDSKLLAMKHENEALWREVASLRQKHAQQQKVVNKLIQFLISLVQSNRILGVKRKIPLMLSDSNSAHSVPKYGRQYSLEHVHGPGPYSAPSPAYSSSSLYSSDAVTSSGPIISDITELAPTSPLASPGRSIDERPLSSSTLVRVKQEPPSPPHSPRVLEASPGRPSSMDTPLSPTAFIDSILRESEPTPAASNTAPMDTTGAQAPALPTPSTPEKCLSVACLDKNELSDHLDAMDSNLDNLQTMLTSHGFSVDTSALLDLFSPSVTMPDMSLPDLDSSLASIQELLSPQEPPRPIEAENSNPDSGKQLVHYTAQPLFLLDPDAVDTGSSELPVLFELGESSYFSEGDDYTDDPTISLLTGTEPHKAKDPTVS

BJ [6] = test: cells; format: functional, cell-based; details: Homo sapiens
[7] = biological target: Luciferin 4-monooxygenase (Photinus pyralis, UniProt P08659); test: inhibition of purified Photinus pyralis luciferase – biochemical, luminescence, dose response (AID 1891)
[8] = Luminescence Cell-Based Dose Confirmation HTS to Identify Inhibitors of Platelet Dense Granule Release. [Related pubchem assays: 1663 (Primary HTS), 1678 (Summary of Project)]; format: functional
[9] = biological target: T1, Voltage-gated N-type calcium channel alpha-1B subunit/Amyloid beta A4 precursor protein-binding family A member 1; format: protein assay; remark: listed apart in the source
[10] = biological target: T3, Kappa-type opioid receptor (Homo sapiens, UniProt P41145); format: functional
T3 sequence (P41145 whole entry): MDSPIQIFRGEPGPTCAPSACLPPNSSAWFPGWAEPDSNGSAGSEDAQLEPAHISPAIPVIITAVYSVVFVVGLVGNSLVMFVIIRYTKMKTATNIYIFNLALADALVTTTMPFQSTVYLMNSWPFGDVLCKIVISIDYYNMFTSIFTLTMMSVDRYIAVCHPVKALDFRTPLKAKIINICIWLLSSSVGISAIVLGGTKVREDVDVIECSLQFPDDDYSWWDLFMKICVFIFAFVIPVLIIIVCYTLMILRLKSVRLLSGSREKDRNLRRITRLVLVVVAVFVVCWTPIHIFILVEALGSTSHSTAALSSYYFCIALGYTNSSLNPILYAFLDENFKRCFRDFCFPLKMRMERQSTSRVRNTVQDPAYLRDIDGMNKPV

Beta-galactosidase = Beta-galactosidase (Escherichia coli, UniProt Q8VNN2); format: functional
Chain of Beta-galactosidase (Q8VNN2 whole entry): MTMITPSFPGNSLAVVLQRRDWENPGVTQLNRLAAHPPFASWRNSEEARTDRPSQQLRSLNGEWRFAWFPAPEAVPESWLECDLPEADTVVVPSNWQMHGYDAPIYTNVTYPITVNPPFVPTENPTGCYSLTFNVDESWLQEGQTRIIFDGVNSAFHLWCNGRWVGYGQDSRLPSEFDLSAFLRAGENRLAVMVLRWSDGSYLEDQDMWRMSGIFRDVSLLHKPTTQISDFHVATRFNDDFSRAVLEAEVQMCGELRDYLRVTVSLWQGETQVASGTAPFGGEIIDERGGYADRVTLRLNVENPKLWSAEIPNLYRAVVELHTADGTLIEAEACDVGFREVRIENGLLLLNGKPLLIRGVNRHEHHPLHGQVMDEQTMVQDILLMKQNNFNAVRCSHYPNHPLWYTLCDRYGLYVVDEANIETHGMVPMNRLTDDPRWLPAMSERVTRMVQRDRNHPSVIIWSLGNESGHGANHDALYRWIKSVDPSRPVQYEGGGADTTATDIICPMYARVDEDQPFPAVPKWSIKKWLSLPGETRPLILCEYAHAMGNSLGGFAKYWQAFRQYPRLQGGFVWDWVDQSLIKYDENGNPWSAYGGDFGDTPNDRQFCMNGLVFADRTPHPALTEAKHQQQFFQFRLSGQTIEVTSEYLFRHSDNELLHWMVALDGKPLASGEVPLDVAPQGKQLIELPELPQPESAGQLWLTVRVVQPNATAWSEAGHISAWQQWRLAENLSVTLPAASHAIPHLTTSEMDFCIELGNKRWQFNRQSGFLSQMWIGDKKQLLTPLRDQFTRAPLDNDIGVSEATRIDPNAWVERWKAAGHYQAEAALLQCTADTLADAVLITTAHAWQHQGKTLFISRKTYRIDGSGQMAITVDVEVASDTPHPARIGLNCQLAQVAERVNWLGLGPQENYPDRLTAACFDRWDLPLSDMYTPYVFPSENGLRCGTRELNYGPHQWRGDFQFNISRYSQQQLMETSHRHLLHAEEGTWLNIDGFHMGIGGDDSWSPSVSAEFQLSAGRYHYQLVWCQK

[11] = biological target: T4, Sphingosine 1-phosphate receptor 4 (Homo sapiens, UniProt O95977); test: Fluorescence dose response cell-based high throughput screening assay for antagonists of the Sphingosine 1-Phosphate Receptor 4 (S1P4). [Related pubchem assays: 1524 (Confirmation in triplicates.), 1510 (Primary screen.)]; format: functional
T4 sequence (O95977 whole entry): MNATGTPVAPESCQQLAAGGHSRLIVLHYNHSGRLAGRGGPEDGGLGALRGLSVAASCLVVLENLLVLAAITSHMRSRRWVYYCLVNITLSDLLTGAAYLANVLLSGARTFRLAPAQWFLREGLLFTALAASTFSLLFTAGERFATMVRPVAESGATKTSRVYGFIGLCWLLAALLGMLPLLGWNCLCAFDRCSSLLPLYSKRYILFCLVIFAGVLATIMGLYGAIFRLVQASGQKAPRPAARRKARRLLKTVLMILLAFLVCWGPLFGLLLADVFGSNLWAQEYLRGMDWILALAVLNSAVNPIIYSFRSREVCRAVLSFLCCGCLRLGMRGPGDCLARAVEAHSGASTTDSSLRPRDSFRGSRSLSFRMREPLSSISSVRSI

BJ [12] = test: BJ-TERT-LT-ST fibroblast viability loss – cell-based, RAS-independent, luminescence, dose response (AID 1935); format: functional; details: Homo sapiens;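 note: BJ fibroblasts immortalized with TERT plus LT and ST oncogenes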
[13] = biological target: T3, Kappa-type opioid receptor; format: functional; remark: listed apart in the source
[14] = DRD fibroblast viability loss – cell-based, non-viral oncogenic, luminescence, dose response (AID 1934); format: functional; details: Homo sapiens
[15] = biological target: Sphingosine 1-phosphate receptor 1 (Homo sapiens, UniProt P21453); format: functional;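 note: Tango beta-arrestin reporter U2OS cells stimulated with S1P near its EC80; inhibitor potency meaning antagonism of receptor activation by the natural agonist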
[16] = biological target: Induced myeloid leukemia cell differentiation protein Mcl-1 (Homo sapiens, UniProt Q07820); format: functional
[17] = biological target: Glucose-6-phosphate 1-dehydrogenase (Homo sapiens, UniProt P11413); test: inhibition of Homo sapiens G6PD, dose series – biochemical, fluorescence, selectivity assay for P. falciparum G6PD inhibitor project, dose response (AID 504792); format: functional
Chain of Glucose-6-phosphate 1-dehydrogenase (P11413 whole entry): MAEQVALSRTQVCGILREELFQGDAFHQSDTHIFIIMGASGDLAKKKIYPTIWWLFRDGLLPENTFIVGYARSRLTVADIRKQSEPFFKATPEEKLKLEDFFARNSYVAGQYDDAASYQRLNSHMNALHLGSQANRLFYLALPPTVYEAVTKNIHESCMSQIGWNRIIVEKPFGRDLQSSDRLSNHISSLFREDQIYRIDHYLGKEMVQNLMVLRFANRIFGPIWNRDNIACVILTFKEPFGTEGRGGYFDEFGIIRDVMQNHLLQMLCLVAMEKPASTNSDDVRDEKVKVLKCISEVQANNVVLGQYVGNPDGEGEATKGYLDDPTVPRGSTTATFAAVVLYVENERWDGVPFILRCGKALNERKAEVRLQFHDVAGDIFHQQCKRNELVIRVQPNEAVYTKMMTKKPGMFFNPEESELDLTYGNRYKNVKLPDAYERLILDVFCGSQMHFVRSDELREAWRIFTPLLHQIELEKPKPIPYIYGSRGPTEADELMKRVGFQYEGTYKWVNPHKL

[18] = biological target: DNA dC->dU-editing enzyme APOBEC-3G (Homo sapiens, UniProt Q9HC16); test: Dose Response confirmation of small molecule APOBEC3G DNA Deaminase Inhibitors via a fluorescence-based single-stranded DNA deaminase assay. [Related pubchem assays (depositor defined):AID493012, AID493028]; format: functional
[19] = HEK-293T viability loss after treatment – luminescence, T-cell screen hits, cytotoxicity control for TCR NF-kB inhibitor project, dose response (AID 489026); format: functional, cell-based;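 note: cells exposed to compound about 14 hours before the viability readout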
CHO = CHO cell viability loss, potency – luminescence, cytotoxicity control for TLR9-MyD88 binding inhibitor project, dose response (AID 588339); format: functional, cell-based, hamster; details: Cricetulus griseus;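 note: CHO cells stably coexpressing TLR9 and MyD88 fusions from primary screen; compound exposure lasted 48 hours before viability readout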
[20] = biological target: Heat shock protein HSP 90-alpha (Homo sapiens, UniProt P07900); format: functional, organism-based
Vero = test: viability of Vero cells under compound – cytotoxicity control for flavivirus capping enzyme inhibitors (AID 588742); format: functional; details: Chlorocebus sabaeus
BJ [21] = test: growth inhibition of engineered Ras-driven BJ cells – cell-based, alamar blue fluorescence, cherrypicked samples, dose response (AID 2631); format: functional; details: Homo sapiens;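 note: confirmatory dose-response assay in RAS-dependent BJ fibroblasts engineered with TERT, LT and ST, with cytotoxicity read by fluorescence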
Beta Lactamase = Beta Lactamase (Pseudomonas aeruginosa, UniProt Q932Y6); test: BLA reporter interference, concentration series – BLA reporter cells, FRET fluorescence, artefact control for TLR9-MyD88 binding inhibitor project, dose response (AID 588341); format: cell-based;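 note: cell based assay in CHO-K1 cells stably expressing beta-lactamase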
Beta-arrestin-1 = Beta-arrestin-1 (Homo sapiens, UniProt P49407); test: beta-arrestin/AP2 interaction blockers, potency – biochemical, cherry pick 1, beta2-adaptin appendage, flow cytometry, dose response (AID 588783); format: functional
INS1 = test: INS-1E survival protection against cytokine death – cell-based, luminescence, retest, dose response (AID 449756); format: functional; details: Rattus norvegicus;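 note: cell death triggered by IL-1 beta plus TNF-alpha plus IFN-gamma mixture; protective hits raise ATP signal compared with cytokine alone wells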
Genome polyprotein = Genome polyprotein (dengue virus type 2, UniProt P29990); test: flavivirus cap methylation enzyme inhibition – biochemical, confirmation dose response, primary screen (AID 588689); format: functional
DNA topoisomerase = DNA topoisomerase (Yersinia pestis, UniProt A0A2S9PM60); test: Yersinia topoisomerase I cleavage product accumulation – biochemical, cherry-pick, dose response (AID 588525)
[22] = biological target: Beta-2 adrenergic receptor (Homo sapiens, UniProt P07550); test: ADRB2 activation measured by internalization – cell-based, FAP fluorogen, flow cytometry, cherry pick 1, dose response (AID 588763); format: functional

With `COc1ccc(OC)c2c1C(=O)C(Cl)=C(Cl)C2=O` the EC50 [1] was > 120 µM (not active), the EC50 [2] was > 60 µM (not active) and the EC50 (BJ [3]) was 3.94 µM (inconclusive). The EC50 (H4) was > 120 µM (not active), the IC50 [4] was 9.53 µM (active) and the EC50 [5] was 4.56 µM (active). For the same compound, the EC50 (BJ [6]) was 5.3 µM (active), the EC50 [7] was > 112 µM (not active) and the EC50 [8] was 11.7 µM (active). For the same compound, the IC50 [9] was 0.331 µM (active), the IC50 [10] was 11.8 µM (active) and the EC50 (Beta-galactosidase) was > 31.5 µM (inactive). The IC50 [11] was 2.02 µM (active), the EC50 (BJ [12]) was 5.05 µM (inconclusive) and the pIC50 [13] was under 4.49. For the same compound, the EC50 [14] was 5.7 µM (inconclusive), the IC50 [15] was 16.8 µM (not active) and the IC50 [16] was 24.8 µM (active). For the same compound, the IC50 [17] was 27 µM (inactive), the IC50 [18] was 7.17 µM (active) and the IC50 [19] was 48.3 µM (inactive). The IC50 (CHO) was 0.629 µM (active), the AC50 [20] was 3.03 µM (active) and the CC50 (Vero) was 14.1 µM (active). The EC50 (BJ [21]) was 4.49 µM (active), the IC50 (Beta Lactamase) was 6.76 µM (active) and the IC50 (Beta-arrestin-1) was 1.64 µM (active). The AC50 (INS1) was 6.17 µM (active) and the IC50 (Genome polyprotein) was 5.23 µM (active).
For `Cc1ccc2nc(Nc3nc(O)cc(CSc4nnc(C)s4)n3)nc(C)c2c1`, the AC50 (DNA topoisomerase) was 6.04 µM (active).
For `Cc1ccc(CNC(=O)CCCCn2c(=O)[nH]c3ccsc3c2=O)cc1`, the EC50 [22] was 10.7 µM (inactive).
